From PubChem BioAssay AID1963976 (Molecular Pharmacology Branch, DTP, NCI, 2024)
Several values for one entry are separate records, joined by “and”; a condition that tells them apart may be missing. Equal values may be shown once. Each block holds one compound with its values, some of them ahead of it.

Tested on: 435261-313-R-J1-PDC tumor spheroid viability
Assay: Anticancer human tumor 435261-313-R-J1-PDC patient-derived colon adenocarcinoma cell line growth inhibition [PI3K]
Conditions: spheroids with HUVEC and MSC; for viability, T/C: stronger effect = lower value
Summary of the method: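 Tumor cells were combined with HUVEC and MSCs into spheroids, then dosed with PI3K-inhibitor combinations over half-log ranges capped near clinical Cmax or 10 microM.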

[1] = curve of first compound, second compound 0.0316 µM
[2] = curve of first compound, second compound 0.1 µM
[3] = curve of first compound, second compound 0.316 µM
[4] = curve of first compound, second compound 1 µM
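Note: spheroids exposed to compounds for 7 days.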

IC50 [1]: > 100 nM | IC50 [2]: > 100 nM | IC50 [3]: 76.3 nM | IC50 [4]: > 100 nM | IC50 (curve of first compound, second compound 3.16 µM): > 100 nM | IC50 (curve of first compound, second compound 10 µM): 0.725 nM
Compound: Cn1ncnc1[C@H]1c2n[nH]c(=O)c3cc(F)cc(c23)N[C@@H]1c1ccc(F)cc1 + CC(Nc1ncnc2nc[nH]c12)c1cc2cccc(Cl)c2c(=O)n1-c1ccccc1
viability, T/C (second compound 0.0316 µM, first compound 0.000316 µM): 116% | viability, T/C (second compound 0.0316 µM, first compound 0.001 µM): 80.9% | viability, T/C (second compound 0.0316 µM, first compound 0.00316 µM): 76.1% | viability, T/C (second compound 0.0316 µM, first compound 0.01 µM): 82.5% | viability, T/C (second compound 0.0316 µM, first compound 0.0316 µM): 59.2% | viability, T/C (second compound 0.0316 µM, first compound 0.1 µM): 53.5% | viability, T/C (second compound 0.1 µM, first compound 0.000316 µM): 90.6% | viability, T/C (second compound 0.1 µM, first compound 0.001 µM): 124% | viability, T/C (second compound 0.1 µM, first compound 0.00316 µM): 104% | viability, T/C (second compound 0.1 µM, first compound 0.01 µM): 106% | viability, T/C (second compound 0.1 µM, first compound 0.0316 µM): 85.2% | viability, T/C (second compound 0.1 µM, first compound 0.1 µM): 69.9% | viability, T/C (second compound 0.316 µM, first compound 0.000316 µM): 81% | viability, T/C (second compound 0.316 µM, first compound 0.001 µM): 54.3% | viability, T/C (second compound 0.316 µM, first compound 0.00316 µM): 71.4% | viability, T/C (second compound 0.316 µM, first compound 0.01 µM): 78.3% | viability, T/C (second compound 0.316 µM, first compound 0.0316 µM): 62.1% | viability, T/C (second compound 0.316 µM, first compound 0.1 µM): 45.6% | viability, T/C (second compound 1 µM, first compound 0.000316 µM): 80.3% | viability, T/C (second compound 1 µM, first compound 0.001 µM): 59.1% | viability, T/C (second compound 1 µM, first compound 0.00316 µM): 80.9% | viability, T/C (second compound 1 µM, first compound 0.01 µM): 82.1% | viability, T/C (second compound 1 µM, first compound 0.0316 µM): 56.6% | viability, T/C (second compound 1 µM, first compound 0.1 µM): 52.7% | viability, T/C (second compound 3.16 µM, first compound 0.000316 µM): 53.3% | viability, T/C (second compound 3.16 µM, first compound 0.001 µM): 57.3% | viability, T/C (second compound 3.16 µM, first compound 0.00316 µM): 75.8% | viability, T/C (second compound 3.16 µM, first compound 0.01 µM): 49.5% | viability, T/C (second compound 3.16 µM, first compound 0.0316 µM): 71.1% | viability, T/C (second compound 3.16 µM, first compound 0.1 µM): 56.2% | viability, T/C (second compound 10 µM, first compound 0.000316 µM): 58% | viability, T/C (second compound 10 µM, first compound 0.001 µM): 50.8% | viability, T/C (second compound 10 µM, first compound 0.00316 µM): 34.9% | viability, T/C (second compound 10 µM, first compound 0.01 µM): 35.4% | viability, T/C (second compound 10 µM, first compound 0.0316 µM): 39% | viability, T/C (second compound 10 µM, first compound 0.1 µM): 33.3%

Compound: CC1(C)CCC(Nc2ncc(C(F)(F)F)c(-c3c[nH]c4c(P(C)(C)=O)c(C#N)ccc34)n2)CN1 (stereo unspecified)
viability, T/C (compound 0.0316 µM): 68.8% [middle of 4 runs] | viability, T/C (compound 0.1 µM): 59.7% [middle of 4 runs] | viability, T/C (compound 1 µM): 54.3% [middle of 4 runs] | viability, T/C (compound 3.16 µM): 51.3% [middle of 4 runs] | viability, T/C (compound 10 µM): 1.48% [middle of 4 runs]

IC50 (curve of first compound, second compound 0.00316 µM): < 9.49 nM | IC50 (curve of first compound, second compound 0.01 µM): < 9.49 nM | IC50 [1]: < 9.49 nM | IC50 [2]: < 9.49 nM | IC50 [3]: < 9.49 nM | IC50 [4]: < 9.49 nM
Compound: Cn1cnc2c(F)c(Nc3ccc(Br)cc3Cl)c(C(=O)NOCCO)cc21 + CC(Nc1ccc2c(c1)OCCn1cc(N3C(=O)OCC3C(F)F)nc1-2)C(N)=O
viability, T/C (second compound 0.00316 µM, first compound 0.00949 µM): 28.1% | viability, T/C (second compound 0.00316 µM, first compound 0.03 µM): 22.7% | viability, T/C (second compound 0.00316 µM, first compound 0.0949 µM): 14.8% | viability, T/C (second compound 0.00316 µM, first compound 0.3 µM): 15.4% | viability, T/C (second compound 0.00316 µM, first compound 0.949 µM): 16.1% | viability, T/C (second compound 0.00316 µM, first compound 3 µM): 11% | viability, T/C (second compound 0.01 µM, first compound 0.00949 µM): 25.1% | viability, T/C (second compound 0.01 µM, first compound 0.03 µM): 24.3% | viability, T/C (second compound 0.01 µM, first compound 0.0949 µM): 16.8% | viability, T/C (second compound 0.01 µM, first compound 0.3 µM): 16.2% | viability, T/C (second compound 0.01 µM, first compound 0.949 µM): 16.1% | viability, T/C (second compound 0.01 µM, first compound 3 µM): 11.5% | viability, T/C (second compound 0.0316 µM, first compound 0.00949 µM): 25.9% | viability, T/C (second compound 0.0316 µM, first compound 0.03 µM): 23.4% | viability, T/C (second compound 0.0316 µM, first compound 0.0949 µM): 15.4% | viability, T/C (second compound 0.0316 µM, first compound 0.3 µM): 14.8% | viability, T/C (second compound 0.0316 µM, first compound 0.949 µM): 12.2% | viability, T/C (second compound 0.0316 µM, first compound 3 µM): 6.61% | viability, T/C (second compound 0.1 µM, first compound 0.00949 µM): 21.4% | viability, T/C (second compound 0.1 µM, first compound 0.03 µM): 12.5% | viability, T/C (second compound 0.1 µM, first compound 0.0949 µM): 13.1% | viability, T/C (second compound 0.1 µM, first compound 0.3 µM): 11.7% | viability, T/C (second compound 0.1 µM, first compound 0.949 µM): 10.7% | viability, T/C (second compound 0.1 µM, first compound 3 µM): 6.55% | viability, T/C (second compound 0.316 µM, first compound 0.00949 µM): 12% | viability, T/C (second compound 0.316 µM, first compound 0.03 µM): 12.2% | viability, T/C (second compound 0.316 µM, first compound 0.0949 µM): 4.89% | viability, T/C (second compound 0.316 µM, first compound 0.3 µM): 8.13% | viability, T/C (second compound 0.316 µM, first compound 0.949 µM): 7.5% | viability, T/C (second compound 0.316 µM, first compound 3 µM): 2.69% | viability, T/C (second compound 1 µM, first compound 0.00949 µM): 11.9% | viability, T/C (second compound 1 µM, first compound 0.03 µM): 9.34% | viability, T/C (second compound 1 µM, first compound 0.0949 µM): 5.53% | viability, T/C (second compound 1 µM, first compound 0.3 µM): 6.3% | viability, T/C (second compound 1 µM, first compound 0.949 µM): 4.59% | viability, T/C (second compound 1 µM, first compound 3 µM): 0.73%

IC50 (curve of compound): 641 nM and 571 nM and 978 nM
Compound: Cn1ncc(Cl)c1-c1cc(C(=O)NC(CN)Cc2cccc(F)c2)sc1Cl (stereo unspecified)
viability, T/C (compound 0.0316 µM): 104% and 107% and 76.9% | viability, T/C (compound 0.1 µM): 82.6% and 66.1% and 92.1% | viability, T/C (compound 0.316 µM): 70.9% and 90.8% and 66.1% | viability, T/C (compound 1 µM): 26.1% and 32.2% and 54.4% | viability, T/C (compound 3.16 µM): 20.6% and 20.1% and 23.6% | viability, T/C (compound 10 µM): 8.15% and 8% and 9.52%
